# Tests used:
# Male Random Hooded rats = assay: Carrageenan model: carrageenan-induced decrease in weight bearing (allodynia) and paw oedema; format: in vivo; conditions: Compound A orally, dosed with morphine subcutaneously; rat, 3 hours after intraplantar 2% carrageenan; dual channel weight averager
# Method: (a) Carrageenan Model for 5′-Deoxy-5′-fluoro-N-(tetrahydro-pyran-4-yl)-adenosine (Adenosine A1 Agonist) and Morphine
# Male Random Hooded rats (180-220 g) were used. The test compound or vehicle was administered 30 mins before the 2nd test compound or vehicle. The test compounds and vehicles used were: (i) Compound A in 0.25% methyl cellulose and (ii) Morphine was made up in saline. Compound A was administered orally. Morphine was administered subcutaneously. After a further 30 mins 100 ul of 2% carrageenan was injected intraplantar into the left hind paw and the animals were then returned to their cages. Three hours later behavioural testing of the carrageenan-induced decrease in weight on the inflamed left hind paw (% weight on the inflammed left hind paw) and associated oedema was assessed. Weight bearing was measured using the dual channel weight averager and paw oedema was assessed using a plethysmometer. The dual channel weight averager is commercially available and is described in the following abstract: Validation of the dual channel weight averager as an instrument for the measurement of inflammatory pain, N. M. Clayton et al., 1997 British Journal Pharmacol. 120, 219P
# Note: In the absense of pain, weight on the hind paws would be evenly distributed, i.e. 50% on each hind paw. […]
# rats = assay: Nociceptive study using an algesymeter (normal nociceptive thresholds); format: in vivo; conditions: Compound A in combination with morphine, rat
# Method: (b) Nociceptive Study for 5′-Deoxy-5′-fluoro-N-(tetrahydro-pyran4-yl)-adenosine (Adenosine A1 Agonist) and morphine
# Nociception studies were carried out using an algesymeter (Randal, L et. al ([…]). Arch. Int. Pharmacodyn., 61 409-419. Variations in the rats normal nociceptive thresholds were studied.
structure (smiles),measurement,setting,value
O[C@@H]1[C@H](O)[C@@H](CF)O[C@H]1n1cnc2c(NC3CCOCC3)ncnc21 [5′-Deoxy-5′-fluoro-N-(tetrahydro-pyran-4-yl)-adenosine],effect against the carrageenan-induced decrease in weight bearing,Male Random Hooded rats,at least an additive effect
same,effect on normal nociceptive levels (nociceptive threshold),rats,significantly increased the normal nociceptive levels of the rat producing at least an additive if not synergistic effect
